Source: PubChem BioAssay (NCI)
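Results reflect a 48-hour exposure of cells in 96-well plates to compound at five concentrations. GI50 marks 50% less growth. At the TGI there is no net growth.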

Key:
Test in all cases: growth of human tumour cells (NCI), 48 h
SK-MEL-28 melanoma = system: SK-MEL-28 melanoma
MOLT-4 leukemia = system: MOLT-4 leukemia
ACHN renal = system: ACHN renal
OVCAR-5 ovarian = system: OVCAR-5 ovarian
HCT-15 colon = system: HCT-15 colon
OVCAR-4 ovarian = system: OVCAR-4 ovarian
SR leukemia = system: SR leukemia
CAKI-1 renal = system: CAKI-1 renal
K-562 leukemia = system: K-562 leukemia
UACC-257 melanoma = system: UACC-257 melanoma

Row | Compound | TGI (SK-MEL-28 melanoma) [µM] | TGI (MOLT-4 leukemia) [µM] | TGI (ACHN renal) [µM] | TGI (OVCAR-5 ovarian) [µM] | TGI (HCT-15 colon) [µM] | TGI (OVCAR-4 ovarian) [µM] | TGI (SR leukemia) [µM] | TGI (CAKI-1 renal) [µM] | TGI (K-562 leukemia) [µM] | TGI (UACC-257 melanoma) [µM] | GI50 (SK-MEL-28 melanoma) [µM] | GI50 (MOLT-4 leukemia) [µM] | GI50 (ACHN renal) [µM] | GI50 (OVCAR-5 ovarian) [µM] | GI50 (HCT-15 colon) [µM] | GI50 (OVCAR-4 ovarian) [µM] | GI50 (SR leukemia) [µM] | GI50 (CAKI-1 renal) [µM] | GI50 (K-562 leukemia) [µM] | GI50 (UACC-257 melanoma) [µM]
1 | O=c1cnn2c(n1)sc1ccc3ccccc3c12 | > 100 | > 100 | > 100 | > 100 | > 100 | > 100 | > 100 | > 100 | > 100 | > 100 | – | – | – | – | – | – | – | – | – | –
2 | COC1=CC(c2ccc[nH]2)=N/C1=C\c1[nH]c(C)c(C(=O)CCCCC(=O)Nc2ccccc2)c1C | 3.2 | 2.01 | 24 | 16.5 | 2.44 | 3.96 | 3.69 | 11.9 | 2.74 | 34 | 1.63 | 0.522 | 10.3 | 3.14 | 0.679 | 1.56 | 0.636 | 4.75 | 1.43 | 12.2
3 | NC(=S)N/N=C1/C(=O)N(c2ccc(Cl)cc2Cl)C(=O)C(=O)C1c1nc2ccccc2s1 (stereo not given) | > 100 | > 100 | > 100 | > 100 | > 100 | > 100 | – | > 100 | > 100 | > 100 | – | – | – | – | – | – | – | – | – | –
4 | Nc1nc2nc[nH]c2c(=O)[nH]1 | > 100 | – | > 100 | > 100 | > 100 | > 100 | > 100 | > 100 | > 100 | > 100 | – | – | – | – | – | – | – | – | – | –
5 | CCCN(CCC)c1ccc(/C=N/NC(=O)c2cccnc2)c(Cl)c1 | 31.9 | 46.2 | > 88.1 | 4.73 | 34.4 | 35.7 | 98.6 | 58 | > 100 | 2.96 | 11.9 | 12.9 | 23.3 | 1.22 | 7.87 | 2.32 | 3.41 | 12.1 | 3.75 | 0.816
6 | O=C1CCC2(CC1)SCCCS2 | > 100 | – | > 100 | > 100 | > 100 | > 100 | – | > 100 | > 100 | > 100 | – | – | – | – | – | – | – | – | – | –
7 | Cc1cc(Cl)cc2c1NC(=O)C2(O)C(C)C(=O)c1ccc(Cl)cc1 (stereo not given) | > 100 | 87.7 | > 100 | > 100 | > 100 | 62.1 | > 91.2 | > 100 | > 100 | > 66.2 | – | – | – | – | – | – | – | – | – | –
8 | c1ccc(CN(Cn2cccn2)Cn2cccn2)nc1 | > 100 | > 100 | > 100 | – | > 100 | > 100 | > 100 | > 100 | > 100 | > 100 | – | – | – | – | – | – | – | – | – | –
9 | COc1ccc(/C=C2\CCC(C)(CN(C)C)C2=O)cc1 (stereo not given) | > 100 | > 100 | > 100 | > 100 | > 100 | > 100 | – | > 100 | > 100 | > 100 | – | – | – | – | – | – | – | – | – | –
10 | COC(=O)C1=C(C(=O)OC)C23C=C(C)C1C2=C(C)C1(CC1)[C@@](C)(O)C3=O (stereo not given in full) | 3.97 | > 100 | > 100 | 8.89 | 12.8 | 6.43 | > 100 | – | > 100 | 3.82 | 0.714 | 6.62 | 0.416 | 0.365 | 0.403 | 0.484 | 3.64 | – | 6.07 | 0.864
11 | Nc1c(-c2ccc(Cl)cc2Cl)[n+]([O-])c2ccccc2[n+]1[O-] | > 100 | > 100 | > 100 | > 100 | > 100 | > 100 | – | > 100 | > 100 | > 100 | – | – | – | – | – | – | – | – | – | –
12 | Cc1nc(NC(=O)CCCN2C(=O)c3cccc4cccc(c34)C2=O)sc1C(=O)Nc1cc(C(=O)NCCCN(C)C)n(C)c1 | > 100 | > 100 | > 100 | > 100 | > 100 | > 100 | > 100 | > 100 | > 100 | – | > 100 | > 100 | > 100 | > 100 | > 100 | 94.8 | > 100 | > 100 | > 100 | –
13 | Cc1cc(Cl)ccc1N=C1NC(=O)C(CC(=O)Nc2ccc(Cl)cc2Cl)S1 (stereo not given) | > 100 | > 100 | > 100 | > 100 | > 100 | > 100 | – | > 100 | > 100 | > 100 | – | – | – | – | – | – | – | – | – | –
14 | COC(=O)C1=C(CO)C2C=CC1C2 (stereo not given) | – | > 100 | > 100 | > 100 | > 100 | > 100 | – | > 100 | > 100 | > 100 | – | – | – | – | – | – | – | – | – | –
15 | OCC12C3C4C1C1C2C3C41CO (stereo not given) | > 100 | > 100 | > 100 | > 100 | > 100 | > 100 | – | > 100 | > 100 | > 100 | – | – | – | – | – | – | – | – | – | –
16 | CC(C)(C)C(=O)C1CC(=O)c2ccccc2C1=O (stereo not given) | 72.8 | 75.9 | > 100 | > 100 | – | > 100 | – | 84.7 | > 100 | 46.1 | – | – | – | – | – | – | – | – | – | –
17 | COc1ccc2c(c1)CC[C@@H]1[C@@H]2CC[C@]2(C)C(c3ccco3)=C(C=O)C[C@@H]12 | > 100 | 38.6 | 13.5 | 94.1 | 26.7 | > 100 | – | 7.59 | 22.7 | 44.6 | 15.8 | 7.27 | 3.56 | 30.5 | 4.19 | 20 | – | 2.5 | 3.56 | 21.7
18 | O=C(NO)C12C3C4C1C1C2C3C41C(=O)NO (stereo not given) | > 100 | > 100 | > 100 | > 100 | > 100 | – | – | > 100 | > 100 | – | – | – | – | – | – | – | – | – | – | –
19 | Cc1cc(O)cc2c1O[C@@]1(C)CCC3[C@@]4(C)CC[C@H](O)C(C)(C)C4CC[C@@]3(C)[C@H]1C2 (stereo not given in full) | 20.3 | 4 | 19 | – | 12.7 | – | – | 20.6 | 6.56 | 29.2 | – | – | – | – | – | – | – | – | – | –
